Literature values in patent publication US9399044B2, “Antimicrobial cationic polyamines” (International Business Machines Corporation, priority 2014, dated 2016).

System: mouse
Settings: commercially available compounds, source NIH

Going from `CC[C@@H](CO)NCCN[C@@H](CC)CO` [Ethambutol] to `CN(Cc1cnc2nc(N)nc(N)c2n1)c1ccc(C(=O)N[C@@H](CCC(=O)O)C(=O)O)cc1` [Methotrexate], the “Mouse Intravenous LD50” value falls from 240 mg/kg to 65 mg/kg (3.7-fold).

Going from `NNC(=O)c1ccncc1` [Isoniazid] to `CN1CCCC1c1cccnc1` (centres unmarked) [Nicotine], the “Mouse Intravenous LD50” value falls from 149 mg/kg to 0.3 mg/kg (500-fold).

In the case of `CO[C@H]1/C=C/O[C@@]2(C)Oc3c(C)c(O)c4c(O)c(c(/C=N/N5CCN(C)CC5)c(O)c4c3C2=O)NC(=O)/C(C)=C\C=C\[C@H](C)[C@H](O)[C@@H](C)[C@@H](O)[C@@H](C)[C@H](OC(C)=O)[C@@H]1C` [Rifampin], the “Mouse Intravenous LD50” value is given as 260 mg/kg.
